Measured values taken from patent publication US20130096050A1 (Longevity Biotech, Inc., priority 2010, published 2013).
pEC50, pIC50: −log10 of the molar value. “Also recorded” adds a separate entry of the source.

Key:
calcitonin receptors = conditions: amylin receptor vs calcitonin receptors; cited from earlier work
CGRP receptors = CGRP receptors (Homo sapiens, UniProt O60894+Q16602); conditions: amylin receptor vs CGRP receptors; cited from earlier work
amylin receptor = conditions: read-out: IC50, amylin receptor antagonist; cited from earlier work
[1] = humans; cited from earlier work
VIPR2 (VPAC2) = molecular target: T1, VIPR2 (VPAC2) (Homo sapiens, UniProt P41587); assay: cAMP Hunter cell line functional assay, agonist mode (DiscoveRx HitHunter cAMP XS+); type: cell-based; conditions: FIG. 3
T1 construct: host or cells: cAMP Hunter cell line (CHO-K1 is named only in the prophetic b955)
T1 sequence (P41587 24-438): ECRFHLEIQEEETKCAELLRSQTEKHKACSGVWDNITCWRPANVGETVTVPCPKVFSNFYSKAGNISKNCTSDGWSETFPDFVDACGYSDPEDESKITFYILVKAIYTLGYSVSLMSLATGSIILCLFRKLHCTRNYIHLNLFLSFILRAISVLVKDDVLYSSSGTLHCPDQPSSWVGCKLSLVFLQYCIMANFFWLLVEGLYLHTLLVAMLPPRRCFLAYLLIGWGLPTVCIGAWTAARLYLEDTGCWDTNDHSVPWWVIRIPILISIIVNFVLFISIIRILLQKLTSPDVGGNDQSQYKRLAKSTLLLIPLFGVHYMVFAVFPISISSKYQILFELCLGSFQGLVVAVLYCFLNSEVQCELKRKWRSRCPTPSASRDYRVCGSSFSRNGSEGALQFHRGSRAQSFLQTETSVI
Method: (§1) Once it was established that the cells were healthy and growing normally, cells were passaged from flasks using cell dissociation reagent buffer and seeded into white walled clear bottom 384-well microplates for compound profiling. For profiling, cells were seeded at a density of 10,000 cells per well in a total volume of 20 μL and were allowed to adhere and recover overnight prior to compound addition. cAMP modulation was determined using the DiscoveRx HitHunter cAMP XS+ assay.
(§2) For profiling compound in agonist mode, the cells were incubated in the presence of compound at 37° C. for 30 minutes. […] After appropriate compound incubation, assay signal was generated through incubation with DiscoverX lysis cocktail according to the manufacturers standard protocol. Dose curves were plotted using GraphPad Prism or Activity Base. Percentage activity is calculated using the following formula:
(§3) % Activity=100%×(mean RLU of test sample−mean RLU of vehicle control)/(mean RLU of MAX control−mean RLU of vehicle control).

VIPR1 (VPAC1) = molecular target: T2, VIPR1 (VPAC1) (Homo sapiens, UniProt P32241); assay: as above; type: cell-based; conditions: for Mean RLU: cAMP, VIPR1 cells
T2 sequence (P32241 31-457): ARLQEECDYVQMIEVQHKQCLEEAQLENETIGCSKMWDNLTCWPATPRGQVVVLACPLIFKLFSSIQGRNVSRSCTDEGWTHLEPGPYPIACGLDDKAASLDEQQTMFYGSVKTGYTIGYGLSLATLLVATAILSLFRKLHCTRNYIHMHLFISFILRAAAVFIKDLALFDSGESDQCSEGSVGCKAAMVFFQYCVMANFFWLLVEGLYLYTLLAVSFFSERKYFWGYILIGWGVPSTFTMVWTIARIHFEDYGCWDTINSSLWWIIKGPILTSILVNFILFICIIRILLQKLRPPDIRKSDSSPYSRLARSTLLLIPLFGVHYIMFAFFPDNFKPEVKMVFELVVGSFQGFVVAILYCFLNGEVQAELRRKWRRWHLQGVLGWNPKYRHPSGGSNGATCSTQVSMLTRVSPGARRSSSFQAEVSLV
Method: as §1, §2, §3

neurotensin receptors = conditions: rat brain receptors; read-out: IC50, inhibition of {Trp11}-NT binding; cited from earlier work

CGRP receptors, sequence (Q16602 23-461): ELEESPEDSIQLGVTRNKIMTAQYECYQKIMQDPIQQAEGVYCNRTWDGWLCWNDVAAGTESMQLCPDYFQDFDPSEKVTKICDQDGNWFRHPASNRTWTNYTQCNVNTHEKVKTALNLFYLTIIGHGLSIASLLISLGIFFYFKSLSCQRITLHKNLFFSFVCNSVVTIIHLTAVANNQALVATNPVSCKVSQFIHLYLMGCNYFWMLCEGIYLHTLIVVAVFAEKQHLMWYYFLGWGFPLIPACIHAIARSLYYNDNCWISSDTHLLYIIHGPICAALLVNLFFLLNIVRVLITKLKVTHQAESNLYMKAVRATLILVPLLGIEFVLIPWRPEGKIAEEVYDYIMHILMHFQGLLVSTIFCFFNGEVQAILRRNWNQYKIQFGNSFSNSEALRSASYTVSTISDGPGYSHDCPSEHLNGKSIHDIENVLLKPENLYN
CGRP receptors, sequence (O60894 27-148 partner): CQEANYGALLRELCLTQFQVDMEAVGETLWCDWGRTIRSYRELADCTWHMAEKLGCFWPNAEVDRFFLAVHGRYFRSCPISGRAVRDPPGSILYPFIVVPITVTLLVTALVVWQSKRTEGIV

AC 187
selectivity over calcitonin receptors (calcitonin receptors): 38 fold
selectivity over CGRP receptors (CGRP receptors): 400 fold
pIC50 (amylin receptor): 9.32

GLP-1: glucagon-like peptide-1, a product of the proglucagon gene, gut hormone (HDEFERHAEGTFTSDVSSYLEGQAAQGFIAWLVKGRG)
plasma half-life [1]: 2 min

HSDAVFTDNYXRLZKQLXVKZYLNX ILN [Compound 8]
activation of / interaction with VIPR2 (in words) (VIPR2 (VPAC2)): not activate; also recorded: does not interact substantially
Mean RLU (VIPR1 (VPAC1); 1.03E−08 M): 13700.0 RLU
Mean RLU (VIPR1 (VPAC1); 1.03E−09 M): 13500.0 RLU
Mean RLU (VIPR1 (VPAC1); 1.03E−10 M): 9960.0 RLU
Mean RLU (VIPR1 (VPAC1); 1.03E−11 M): 10500.0 RLU
Mean RLU (VIPR1 (VPAC1); 1.03E−12 M): 10340.0 RLU
Mean RLU (VIPR1 (VPAC1); 5.03E−07 M): 112320.0 RLU
Mean RLU (VIPR1 (VPAC1); 5.03E−08 M): 96460.0 RLU
Mean RLU (VIPR1 (VPAC1); 5.03E−09 M): 13200.0 RLU
Mean RLU (VIPR1 (VPAC1); 5.03E−10 M): 9520.0 RLU
activation of VIPR1 (in words) (VIPR1 (VPAC1); FIG. 3): fully activate
pEC50 (VIPR1 (VPAC1); cAMP readout, 37° C. for 30 minutes, read-out: EC50 (peptide concentration for 50% VIPR1 activation)): 7.55

Neuromedin N
pIC50 (neurotensin receptors): 7.78
